# Test results published in patent US8664379B2, “Fused heterocyclic compounds as ion channel modulators” (Gilead Sciences, Inc., priority 2008, dated 2014).
# Values joined by “and” are separate entries in the source; they are usually repeats but may differ in a detail not shown here. Equal entries are not always repeated.
# Key:
# [1] = target: wild-type human cardiac sodium channel, hNav1.5 (late sodium current) (Homo sapiens, UniProt Q14524); experiment: Late INa screening assay (PatchXpress whole cell patch clamp); assay type: cell-based; conditions: HEK293, 10 μM test compound; HEK293 cells expressing hNav1.5; late INa generated with 10 μM Tefluthrin (some experiments 50 nM ATX II); read-out: Late INa % blk (10 μM test cmpd)
# Protocol: The late sodium current (Late INa) and peak sodium current (Peak INa) assays were performed on an automated electrophysiology platform, PatchXpress 7000A (MDS Analytical Technologies, Sunnyvale, Calif.), which uses the whole cell patch clamp technique to measure currents through the cell membrane of up to 16 cells at a time. The assay used an HEK293 (human embryonic kidney) cell line heterologously expressing the wild-type human cardiac sodium channel, hNav1.5, purchased from Millipore (Billerica, Mass.). No beta subunits were coexpressed with the Na channel alpha subunit. Cells were maintained with standard tissue culture procedures and stable channel expression was maintained with 400 μg/ml Geneticin in the culture medium. Cells isolated for use on PatchXpress were incubated for 5 minutes in Versene 1× and then for 2 minutes in 0.0125% Trypsin-EDTA (both at 37° C.) to ensure that 80-90% of the cells are single and not part of a cell cluster. Experiments were carried out at 24-27° C.
# For both the Late INa and Peak INa assays, series resistance compensation was set to 50% and whole-cell compensation was performed automatically. Currents were low-pass filtered at 10 kHz and digitized at 31.25 kHz. Currents through open sodium channels were automatically recorded and stored in the DataXpress2 database (MDS Analytical Technologies, Sunnyvale, Calif.). Analysis was performed using DataXpress2 analysis software and data are compiled in Excel.
# Compound stocks were routinely made in glass vials to 10 mM in dimethyl sulfoxide (DMSO). In some cases, when compounds were not soluble in DMSO, they were made in 100% ethanol. Stocks were sonicated as necessary. The extracellular solution for screening Late INa was composed of: 140 mM NaCl, 4 mM KCl, 1.8 mM CaCl2, 0.75 mM MgCl2, and 5 mM HEPES with pH adjusted to 7.4 using NaOH. The extracellular solution for screening Peak INa was composed of: 20 mM NaCl, 120 mM N-methyl-D glucamine, 4 mM KCl, 1.8 mM CaCl2, 0.75 mM MgCl2, and 5 mM HEPES with pH adjusted to 7.4 using HCl. The intracellular solution used to perfuse the inside of the cells for both the Late INa and Peak INa assays contains: 120 mM CsF, 20 mM CsCl, 5 mM EGTA, 5 mM HEPES and pH adjusted to 7.4 with CsOH. Compounds were diluted in extracellular solution to 10 μM in glass vials and then transferred to glass well plates before robotic addition to the cells. The 0Na extracellular solution used at the end of each experiment for the Late INa and Peak INa assays to measure baseline current contained: 140 mM N-methyl-D-glucamine; 4 mM KCl; 1.8 mM CaCl2; 0.75 mM MgCl2; 5 mM HEPES and pH was adjusted to 7.4 with HCl.
# For the Late INa assay, sodium channels were activated every 10 seconds (0.1 Hz) by depolarizing the cell membrane to −20 mV for 250 milliseconds (ms) from a holding potential of −120 mV. In response to a −20 mV voltage step, typical Nav1.5 sodium currents activated rapidly to a peak negative current and then inactivated nearly completely within 3-4 ms.
# All compounds were tested to determine their activity in blocking the late sodium current. Late INa current is generated by adding 10 μM Tefluthrin (pyrethroid) to the extracellular solution while recording Na currents. For some experiments, 50 nM ATX II (sea anemone toxin), another late INa activator, was used to generate the late component. Both activators generate late components that are large enough that block of the late component by compounds can be measured easily. For the purposes of the screening, late INa is defined as the mean current between 225 ms and 250 ms after stepping to −20 mV to activate Na channels. After establishing the whole cell recording configuration, late INa activators were added to each well 4 times over a 16-17 minute period so that the late component of the Na current reached a stable value. Compounds were then added (typically at 10 μM), in the presence of late INa activator, with 3 additions over the course of 7 or 8 minutes. […]
# [2] = target: T1, hERG potassium channel (Homo sapiens, UniProt Q12809); experiment: hERG screening assay (PatchXpress patch clamp); assay type: cell-based; conditions: hERG expressed in CHO cells, peak current at -50 mV; for hERG Patch Clamp hERG % blk 1 μm: 1 μM test compound; for hERG Patch Clamp hERG % blk 10 μm: 10 μM test compound
# T1 construct: expressed in transfected cells
# Protocol: Compounds were screened to test their activity in blocking the hERG potassium channel. The hERG channel was heterologously expressed in a CHO (Chinese Hamster Ovary) cell line. Cells were maintained with standard tissue culture procedures and stable channel expression was maintained with 500 μg/ml G418 in the culture medium. Cells were harvested for testing on the PatchXpress automated patch clamp with Accumax (Innovative Cell Technologies, San Diego, Calif.) to isolate single cells.
# The following solutions were used for electrophysiological recordings. The external solution contained: 2 mM CaCl2; 2 mM MgCl2; 4 mM KCl; 150 mM NaCl; 10 mM Glucose; 10 mM HEPES (pH 7.4 with 1M NaOH, osmolarity). The internal solution contained: 140 mM KCl, 10 mM MgCl2, 6 mM EGTA, 5 mM HEPES, 5 mM ATP (pH adjusted to 7.25 with KOH).
# hERG channels are activated when the voltage is stepped to +20 mV from the −80 mV holding potential. During a 5 second step at +20 mV, the channels activated and then largely inactivated, so the currents were relatively small. Upon returning to −50 mV from +20 mV, hERG currents transiently became much larger as inactivation was rapidly removed and then the channel closed. The first step to −50 mV for 300 ms was used as a baseline for measuring the peak amplitude during the step to −50 mV after channel activation. The peak current at −50 mV was measured both under control conditions and after addition of compound.
# All compounds were prepared as 10 mM DMSO stocks in glass vials. Stock solutions were mixed by vigorous vortexing and sonication for about 2 minutes at room temperature. For testing, compounds were diluted in glass vials using an intermediate dilution step in pure DMSO and then further diluted to working concentrations in external solution. Dilutions were prepared no longer than 20 minutes before use.
# After achieving the whole-cell configuration, cells were monitored for 90 seconds to assess stability and washed with external solution for 66 seconds. The voltage protocol described above was then applied to the cells every 12 seconds and throughout the whole procedure. Only cells with stable recording parameters and meeting specified health criteria were allowed to enter the compound addition procedure.
# External solution containing 0.1% DMSO (vehicle) was applied to the cells first to establish the control peak current amplitude. After allowing the current to stabilize for 3 to 5 minutes, 1 μM and then 10 μM test compounds were applied. Each compound concentration was added 4 times and cells were kept in test solution until the effect of the compound reached steady state or for a maximum of 12 minutes. After addition of test compound, a positive control (1 μM Cisapride) was added—it must block >95% of the current for the experiment to be considered valid. Washout in the external solution compartment was performed until the recovery of the current reached steady state. Data were analyzed using DataXpress, Clampfit (Molecular Devices, Inc., Sunnyvale) and Origin 7 (Originlab Corp.)
# Sequence of wild-type human cardiac sodium channel, hNav1.5 (late sodium current) (Q14524 whole entry): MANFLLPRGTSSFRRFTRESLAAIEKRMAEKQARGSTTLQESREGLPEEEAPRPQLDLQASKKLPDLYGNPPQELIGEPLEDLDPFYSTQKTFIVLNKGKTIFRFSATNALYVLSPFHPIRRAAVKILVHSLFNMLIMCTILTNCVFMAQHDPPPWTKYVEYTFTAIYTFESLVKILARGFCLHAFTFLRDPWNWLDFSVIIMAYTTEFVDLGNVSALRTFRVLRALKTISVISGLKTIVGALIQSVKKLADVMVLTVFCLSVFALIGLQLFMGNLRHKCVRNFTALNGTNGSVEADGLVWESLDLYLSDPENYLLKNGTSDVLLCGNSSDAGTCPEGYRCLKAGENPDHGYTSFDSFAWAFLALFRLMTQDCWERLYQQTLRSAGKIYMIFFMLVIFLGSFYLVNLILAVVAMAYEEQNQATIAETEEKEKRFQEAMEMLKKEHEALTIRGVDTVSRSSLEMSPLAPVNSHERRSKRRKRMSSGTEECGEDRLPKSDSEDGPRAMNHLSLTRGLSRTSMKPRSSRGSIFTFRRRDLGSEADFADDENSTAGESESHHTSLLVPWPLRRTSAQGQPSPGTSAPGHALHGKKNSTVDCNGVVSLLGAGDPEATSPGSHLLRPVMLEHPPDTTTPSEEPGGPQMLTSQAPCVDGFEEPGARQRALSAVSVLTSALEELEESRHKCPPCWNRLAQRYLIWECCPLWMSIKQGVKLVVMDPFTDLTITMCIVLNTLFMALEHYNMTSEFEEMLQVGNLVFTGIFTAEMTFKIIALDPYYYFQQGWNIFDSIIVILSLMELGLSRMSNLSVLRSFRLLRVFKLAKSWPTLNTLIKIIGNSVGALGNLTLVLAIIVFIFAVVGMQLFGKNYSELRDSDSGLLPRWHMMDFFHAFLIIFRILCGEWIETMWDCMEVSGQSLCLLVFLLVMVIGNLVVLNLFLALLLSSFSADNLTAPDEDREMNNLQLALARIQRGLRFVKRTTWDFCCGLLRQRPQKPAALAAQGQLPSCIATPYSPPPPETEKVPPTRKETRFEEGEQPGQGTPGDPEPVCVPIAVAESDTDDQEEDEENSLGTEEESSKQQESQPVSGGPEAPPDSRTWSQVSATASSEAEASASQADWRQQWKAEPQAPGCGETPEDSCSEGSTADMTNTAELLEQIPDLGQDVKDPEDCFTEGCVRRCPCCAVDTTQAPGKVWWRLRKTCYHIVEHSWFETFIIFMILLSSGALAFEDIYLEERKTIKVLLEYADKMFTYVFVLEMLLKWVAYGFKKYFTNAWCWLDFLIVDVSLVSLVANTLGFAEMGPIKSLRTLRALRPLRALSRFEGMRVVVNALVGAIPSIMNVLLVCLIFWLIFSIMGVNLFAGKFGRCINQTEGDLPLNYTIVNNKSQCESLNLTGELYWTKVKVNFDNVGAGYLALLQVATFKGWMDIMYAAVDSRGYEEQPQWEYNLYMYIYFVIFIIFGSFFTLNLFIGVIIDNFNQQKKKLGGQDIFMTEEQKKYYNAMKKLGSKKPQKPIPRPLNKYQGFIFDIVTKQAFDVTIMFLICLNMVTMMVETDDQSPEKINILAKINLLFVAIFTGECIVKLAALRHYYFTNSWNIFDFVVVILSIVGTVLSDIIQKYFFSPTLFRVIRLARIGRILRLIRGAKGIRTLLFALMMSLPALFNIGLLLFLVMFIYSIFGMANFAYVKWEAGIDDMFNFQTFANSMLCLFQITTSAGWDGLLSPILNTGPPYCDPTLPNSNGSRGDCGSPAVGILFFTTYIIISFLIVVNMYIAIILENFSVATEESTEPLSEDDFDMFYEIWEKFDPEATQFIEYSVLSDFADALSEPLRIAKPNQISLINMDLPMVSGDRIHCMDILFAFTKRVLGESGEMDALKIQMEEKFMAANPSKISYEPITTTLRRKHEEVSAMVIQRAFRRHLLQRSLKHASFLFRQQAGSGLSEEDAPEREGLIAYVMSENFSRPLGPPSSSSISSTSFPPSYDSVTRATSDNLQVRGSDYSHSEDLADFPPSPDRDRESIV
# T1 sequence (Q12809 whole entry): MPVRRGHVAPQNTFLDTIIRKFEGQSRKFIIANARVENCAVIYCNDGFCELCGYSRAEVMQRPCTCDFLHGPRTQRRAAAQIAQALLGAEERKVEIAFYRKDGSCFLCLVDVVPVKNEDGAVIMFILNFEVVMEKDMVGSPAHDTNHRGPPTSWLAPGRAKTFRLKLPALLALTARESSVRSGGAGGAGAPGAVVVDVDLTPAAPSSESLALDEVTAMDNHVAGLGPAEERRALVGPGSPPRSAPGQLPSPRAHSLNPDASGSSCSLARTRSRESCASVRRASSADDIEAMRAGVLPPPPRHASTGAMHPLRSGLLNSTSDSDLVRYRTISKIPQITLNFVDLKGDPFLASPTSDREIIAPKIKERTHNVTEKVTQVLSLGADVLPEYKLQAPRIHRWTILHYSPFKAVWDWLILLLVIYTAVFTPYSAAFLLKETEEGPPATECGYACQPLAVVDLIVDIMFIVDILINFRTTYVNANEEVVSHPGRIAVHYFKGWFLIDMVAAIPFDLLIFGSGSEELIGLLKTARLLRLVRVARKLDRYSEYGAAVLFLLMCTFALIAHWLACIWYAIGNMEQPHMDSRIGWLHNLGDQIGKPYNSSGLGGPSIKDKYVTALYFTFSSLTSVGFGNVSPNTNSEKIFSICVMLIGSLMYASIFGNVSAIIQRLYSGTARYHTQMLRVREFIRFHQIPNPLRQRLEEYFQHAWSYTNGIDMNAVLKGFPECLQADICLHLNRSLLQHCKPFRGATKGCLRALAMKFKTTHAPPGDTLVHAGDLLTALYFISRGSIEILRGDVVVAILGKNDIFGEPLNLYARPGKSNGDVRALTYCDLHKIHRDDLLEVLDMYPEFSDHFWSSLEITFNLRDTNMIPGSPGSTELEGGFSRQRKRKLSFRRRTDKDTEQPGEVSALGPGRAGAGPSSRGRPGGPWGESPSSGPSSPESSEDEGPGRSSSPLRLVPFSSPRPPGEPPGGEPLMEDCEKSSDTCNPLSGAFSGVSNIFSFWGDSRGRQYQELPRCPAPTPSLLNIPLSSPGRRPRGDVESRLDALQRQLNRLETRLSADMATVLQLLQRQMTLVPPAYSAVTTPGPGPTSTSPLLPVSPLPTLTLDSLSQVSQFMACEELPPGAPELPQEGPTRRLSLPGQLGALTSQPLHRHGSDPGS
Compound,inhibition at 10 µM [1] [%],hERG Patch Clamp hERG % blk 1 μm [2],hERG Patch Clamp hERG % blk 10 μm [2]
"CC(C)(C)OC(=O)CN1C(=O)CCc2cc(-c3ccc(C(F)(F)F)cc3)ccc21 [Compound 29, tert-butyl {2-oxo-6-[4-(trifluoromethyl)phenyl]-3,4-dihydroquinolin-1(2H)-yl}acetate]",69,11%,97%
"O=C1CCc2cc(-c3cccc(F)c3)ccc2N1 [Compound 1, 6-(3-fluorophenyl)-3,4-dihydroquinolin-2(1H)-one]",74,10%,19%
"O=C(O)CN1C(=O)CCc2cc(-c3ccc(Cl)c(Cl)c3)ccc21 [Compound 69, [6-(3,4-dichlorophenyl)-2-oxo-3,4-dihydroquinolin-1(2H)-yl]acetic acid]",16,10%,10%
"CN1C(=O)CCc2cc(-c3cccc(F)c3)ccc21 [Compound 21, 6-(3-fluorophenyl)-1-methyl-3,4-dihydroquinolin-2(1H)-one]",65,11%,36%
"O=C1CCc2cc(-c3ccc(OC(F)(F)F)cc3)ccc2N1 [Compound 34, 6-[4-(trifluoromethoxy)phenyl]-3,4-dihydroquinolin-2(1H)-one]",60,13%,37%
"O=C1CCc2cc(-c3ccccc3)ccc2N1 [Compound 4, 6-phenyl-3,4-dihydroquinolin-2(1H)-one]",48,10%,16%
"O=C(O)CN1C(=O)CCc2cc(-c3cccc(C(F)(F)F)c3)ccc21 [Compound 60, 2-(2-oxo-6-(3-(trifluoromethyl)phenyl)-3,4-dihydroquinolin-1(2H)-yl)acetic acid]",25,10%,10%
"COCCN1C(=O)CCc2cc(-c3ccc(F)cc3F)ccc21 [Compound 27, 6-(2,4-difluorophenyl)-1-(2-methoxyethyl)-3,4-dihydroquinolin-2(1H)-one]",52,12%,47%
"Cc1cc(CN2C(=O)CCc3cc(-c4ccc(OC(F)(F)F)cc4)ccc32)no1 [Compound 39, 1-[(5-methylisoxazol-3-yl)methyl]-6-[4-(trifluoromethoxy)phenyl]-3,4-dihydroquinolin-2(1H)-one]",60,12%,96%
"COCCN1C(=O)CCc2cc(-c3ccc(C(F)(F)F)cc3)ccc21 [Compound 49, 1-(2-methoxyethyl)-6-[4-(trifluoromethyl)phenyl]-3,4-dihydroquinolin-2(1H)-one]",60,10%,42%
"O=C(O)CN1C(=O)CCc2cc(-c3ccc(Oc4ccccc4)cc3)ccc21 [Compound 70, [2-oxo-6-(4-phenoxyphenyl)-3,4-dihydroquinolin-1(2H)-yl]acetic acid]",17,10%,10%
"O=C1CCc2cc(-c3ccc(F)c(F)c3)ccc2N1CCO [Compound 15, 6-(3,4-difluorophenyl)-1-(2-hydroxyethyl)-3,4-dihydroquinolin-2(1H)-one]",36,13%,59%
"CCOC(=O)CN1C(=O)CCc2cc(-c3ccc(OC(F)(F)F)cc3)ccc21 [Compound 25, ethyl {2-oxo-6-[4-(trifluoromethoxy)phenyl]-3,4-dihydroquinolin-1(2H)-yl}acetate]",20,26%,32%
"O=C(O)CN1C(=O)CCc2cc(-c3ccc(Cl)c(F)c3)ccc21 [Compound 58, [6-(4-chloro-3-fluorophenyl)-2-oxo-3,4-dihydroquinolin-1(2H)-yl]acetic acid]",13,10%,10%
"CC(O)CN1C(=O)CCc2cc(-c3ccc(OC(F)(F)F)cc3)ccc21 (stereo not drawn) [Compound 89, 1-(2-hydroxypropyl)-6-[4-(trifluoromethoxy)phenyl]-3,4-dihydroquinolin-2(1H)-one]",42,24% and 16%,67% and 72%
"O=C1CCc2cc(-c3ccc(C(F)(F)F)cc3)ccc2N1CCO [Compound 14, 1-(2-hydroxyethyl)-6-[4-(trifluoromethyl)phenyl]-3,4-dihydroquinolin-2(1H)-one]",29,10%,28%
